Calls of active or inactive are those of the source.
Columns and labels:
[1] = reduction of Shn3 3'UTR-driven luciferase in osteoblasts – cell-based, Clone20 osteoblasts, firefly luciferase, cherry-picked, dose response (AID 624132); type: functional;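 also: firefly luciferase luminescence from reporter carrying the Shn3 3'UTR in osteoblasts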
[2] = decrease of insulin promoter-GFP reporter – imaging, high-content screening, mouse beta cells (AID 1628); type: functional; conditions: MIN6
[3] = non-specific 3'UTR reporter inhibition in Clone20-Shn3RL – cell-based, Renilla luciferase, cherry-picked, counter-screen for Shn3 inhibitor project, dose response (AID 624133); type: functional
[4] = MIN6 cell viability loss – mouse insulinoma, cytotoxicity control, dose response (AID 2122); type: functional;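 also: confirmatory high-throughput counterscreen run to flag cytotoxic compounds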
[5] = molecular target: Galanin receptor type 2 (Homo sapiens, UniProt O43603); test: Dose Response cell-based high-throughput screening assay to identify antagonists of galanin receptor 2 (GALR2). [Related pubchem assays: 828, 866 ]; type: functional
[6] = molecular target: T1, Delta-type opioid receptor (Homo sapiens, UniProt P41143); test: DOR agonists, SAR follow-up, image-based (AID 2370); type: functional
[7] = molecular target: T2, Kappa-type opioid receptor (Homo sapiens, UniProt P41145); test: SAR analysis of small molecule agonists of the kappa opioid receptor via a luminescent beta-arrestin assay. [Related pubchem assays (depositor defined):AID1777, AID1786, AID1966, AID2133, AID2136, AID2348, AID2352, AID2357, AID2359, AID2370, AID2420, AID2478, AID2491, AID2492, AID2493, AID2497, AID2498, AID2500, AID449737, AID488822, AID488842]; type: functional
[8] = molecular target: T2, Kappa-type opioid receptor; test: kappa opioid receptor blockers, image-based, SAR follow-up (AID 2348); type: functional
[9] = molecular target: T3, Mu-type opioid receptor (Homo sapiens, UniProt P35372); test: mu opioid receptor blockers – image-based, SAR follow-up (AID 2420); type: functional;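 also: compounds added before stimulation of receptor with agonist DAMGO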
[10] = molecular target: T2, Kappa-type opioid receptor; test: kappa opioid receptor activation potency – imaging, image-based, SAR follow-up (AID 2359); type: functional
[11] = molecular target: T3, Mu-type opioid receptor; test: mu opioid receptor activators, image-based, SAR follow-up (AID 2352); type: functional
[12] = molecular target: T1, Delta-type opioid receptor; test: delta opioid receptor blockers – image-based, SAR follow-up (AID 2357); type: functional
[13] = system: BJ; test: growth inhibition of engineered Ras-driven BJ cells – cell-based, alamar blue fluorescence, cherrypicked samples, dose response (AID 2631); type: functional; conditions: Homo sapiens;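 also: confirmatory dose-response assay in RAS-dependent BJ fibroblasts engineered with TERT, LT and ST, with cytotoxicity read by fluorescence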
[14] = DRD fibroblast viability loss – cell-based, non-viral oncogenic, luminescence, dose response (AID 1934); type: functional; conditions: Homo sapiens
[15] = molecular target: T4, Apoptotic protease-activating factor 1 (Homo sapiens, UniProt O14727); type: functional
T4 sequence (O14727 whole entry): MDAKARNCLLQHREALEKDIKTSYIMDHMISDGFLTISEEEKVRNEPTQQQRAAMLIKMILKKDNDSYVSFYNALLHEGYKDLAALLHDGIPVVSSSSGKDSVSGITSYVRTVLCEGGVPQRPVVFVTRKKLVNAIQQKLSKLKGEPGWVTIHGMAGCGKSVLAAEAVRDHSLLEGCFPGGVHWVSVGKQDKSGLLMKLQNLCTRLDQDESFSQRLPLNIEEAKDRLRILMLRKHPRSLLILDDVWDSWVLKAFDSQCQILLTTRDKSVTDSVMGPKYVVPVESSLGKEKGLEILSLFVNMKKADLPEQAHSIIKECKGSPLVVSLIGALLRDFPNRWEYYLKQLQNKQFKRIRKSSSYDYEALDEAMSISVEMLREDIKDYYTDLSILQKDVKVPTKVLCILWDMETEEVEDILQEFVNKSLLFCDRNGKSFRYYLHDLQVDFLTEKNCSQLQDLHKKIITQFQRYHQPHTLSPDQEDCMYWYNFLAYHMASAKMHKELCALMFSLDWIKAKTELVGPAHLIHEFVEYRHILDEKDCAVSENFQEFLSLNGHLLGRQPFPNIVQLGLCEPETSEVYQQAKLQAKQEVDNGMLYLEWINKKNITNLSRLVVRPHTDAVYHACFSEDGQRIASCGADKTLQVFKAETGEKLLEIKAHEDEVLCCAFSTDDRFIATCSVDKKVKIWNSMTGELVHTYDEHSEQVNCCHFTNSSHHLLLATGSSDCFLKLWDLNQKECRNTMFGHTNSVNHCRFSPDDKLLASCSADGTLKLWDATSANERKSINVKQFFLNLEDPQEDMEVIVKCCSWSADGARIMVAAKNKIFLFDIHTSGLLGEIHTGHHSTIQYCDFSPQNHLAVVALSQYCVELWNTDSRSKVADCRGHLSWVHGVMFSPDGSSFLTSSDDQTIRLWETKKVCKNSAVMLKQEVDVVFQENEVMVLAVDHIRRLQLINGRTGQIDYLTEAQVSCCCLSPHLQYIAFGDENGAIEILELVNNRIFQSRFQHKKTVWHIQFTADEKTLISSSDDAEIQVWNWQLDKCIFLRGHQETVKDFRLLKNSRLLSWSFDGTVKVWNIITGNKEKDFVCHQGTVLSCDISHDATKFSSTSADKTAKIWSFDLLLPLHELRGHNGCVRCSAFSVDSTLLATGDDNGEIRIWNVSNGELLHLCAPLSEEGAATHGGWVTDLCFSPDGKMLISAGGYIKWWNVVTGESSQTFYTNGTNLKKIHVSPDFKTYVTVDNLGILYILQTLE

[16] = molecular target: T5, DNA repair protein RAD52 homolog (Homo sapiens, UniProt P43351); type: functional, biochemical
T5 sequence (P43351 whole entry): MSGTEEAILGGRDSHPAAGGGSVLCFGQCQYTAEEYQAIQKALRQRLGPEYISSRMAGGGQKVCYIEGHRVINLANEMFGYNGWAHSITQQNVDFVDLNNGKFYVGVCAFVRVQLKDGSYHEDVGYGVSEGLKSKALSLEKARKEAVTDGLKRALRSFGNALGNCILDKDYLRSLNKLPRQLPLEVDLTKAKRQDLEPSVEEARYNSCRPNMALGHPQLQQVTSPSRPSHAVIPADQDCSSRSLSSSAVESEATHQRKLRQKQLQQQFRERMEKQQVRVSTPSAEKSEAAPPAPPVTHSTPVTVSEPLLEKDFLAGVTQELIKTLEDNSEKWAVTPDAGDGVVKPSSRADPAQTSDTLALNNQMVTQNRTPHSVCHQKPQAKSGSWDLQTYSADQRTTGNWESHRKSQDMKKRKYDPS

[17] = system: HEK293; test: cells; type: functional, cell-based; conditions: Homo sapiens
[18] = molecular target: Melanocortin receptor 4 (Homo sapiens, UniProt P32245); type: functional, cell-based;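 also: Cell-based assay with luminescence read-out, confirmatory dose-response testing for agonist activity of biased ligands at MC4R; human U2OS cells with tagged receptor and beta-arrestin; potency of agonists that increase receptor coupling to beta-arrestin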
[19] = molecular target: CAAX prenyl protease 1 (Saccharomyces cerevisiae S288c, UniProt P47154); test: yeast CAAX protease Ste24 inhibition – biochemical, S. cerevisiae, plate reader, cherry-pick, dose response (AID 488815)
[20] = system: BJ; test: BJ-TERT-LT-ST fibroblast viability loss – cell-based, RAS-independent, luminescence, dose response (AID 1935); type: functional; conditions: Homo sapiens;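 also: BJ fibroblasts immortalized with TERT plus LT and ST oncogenes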
[21] = system: INS1; test: INS-1E survival protection against cytokine death – cell-based, luminescence, retest, dose response (AID 449756); type: functional; conditions: Rattus norvegicus;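 also: cell death triggered by IL-1 beta plus TNF-alpha plus IFN-gamma mixture; protective hits raise ATP signal compared with cytokine alone wells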
[22] = system: HEK293; test: inhibition of NOD1-driven NF-kB reporter – cell-based, luminescence, uHTS, primary screen (AID 1578); type: functional; conditions: Homo sapiens
[23] = system: HEK293; test: NOD2 signaling inhibitors in MDP-stimulated cells, cell-based, uHTS, luminescence (AID 2001); type: functional; conditions: Homo sapiens
[24] = molecular target: Heat shock protein HSP 90-alpha (Homo sapiens, UniProt P07900); type: functional, organism-based
[25] = system: BJ; test: BJ-TERT fibroblast viability loss – cell-based, RAS-independent, luminescence, dose response (AID 1933); type: functional; conditions: Homo sapiens
[26] = molecular target: T6, Ubiquitin-conjugating enzyme E2 N (Homo sapiens, UniProt P61088); type: functional;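 also: Dose-response confirmation in a TR-FRET assay detecting UBC13-driven polyubiquitin chain formation, inhibition measured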
T6 sequence (P61088 whole entry): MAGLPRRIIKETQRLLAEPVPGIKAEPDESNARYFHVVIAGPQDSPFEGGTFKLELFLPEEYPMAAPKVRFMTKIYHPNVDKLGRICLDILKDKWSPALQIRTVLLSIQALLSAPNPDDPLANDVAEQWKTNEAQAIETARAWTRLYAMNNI

[27] = system: BJ; test: cells; type: functional, cell-based; conditions: Homo sapiens
[28] = system: HEK293; test: cells; type: functional, cell-based; conditions: Homo sapiens; remark: listed apart in the source
[29] = system: HEK293; test: cells; type: functional, cell-based; conditions: Homo sapiens; remark: listed apart in the source
[30] = fluconazole-exposed Candida albicans growth modulators – fluorescence, retest, confirmation (AID 2467); type: functional, cell-based
[31] = HEK-293T viability loss after treatment – luminescence, T-cell screen hits, cytotoxicity control for TCR NF-kB inhibitor project, dose response (AID 489026); type: functional, cell-based;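 also: cells exposed to compound about 14 hours before the viability readout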
[32] = NIH-3T3 fibroblast cytotoxicity, dose response, cytotoxicity control, cell-based, fluorescence, Alamar Blue, secondary assay (AID 2327); type: functional;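 also: NIH-3T3 mouse fibroblasts cultured with fluconazole at 8 µg/mL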
[33] = molecular target: T7, CAAX prenyl protease 2 (Saccharomyces cerevisiae S288c, UniProt Q03530); type: biochemical
T7 sequence (Q03530 whole entry): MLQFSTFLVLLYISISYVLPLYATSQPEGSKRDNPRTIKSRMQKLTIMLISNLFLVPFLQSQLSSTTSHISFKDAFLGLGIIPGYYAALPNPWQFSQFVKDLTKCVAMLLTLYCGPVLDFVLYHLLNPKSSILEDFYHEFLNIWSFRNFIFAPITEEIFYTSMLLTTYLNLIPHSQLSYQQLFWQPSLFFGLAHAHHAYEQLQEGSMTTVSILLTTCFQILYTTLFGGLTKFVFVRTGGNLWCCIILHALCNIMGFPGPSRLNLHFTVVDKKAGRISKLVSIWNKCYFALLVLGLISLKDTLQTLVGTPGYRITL

[34] = molecular target: Nucleotide-binding oligomerization domain-containing protein 2 (Homo sapiens, UniProt Q9HC29); test: inhibition of NOD2-driven NF-kB reporter – cell-based, luminescence, uHTS, HEK293 (AID 1566); type: functional
Sequence of Nucleotide-binding oligomerization domain-containing protein 2 (Q9HC29 whole entry, the tested form may be a part): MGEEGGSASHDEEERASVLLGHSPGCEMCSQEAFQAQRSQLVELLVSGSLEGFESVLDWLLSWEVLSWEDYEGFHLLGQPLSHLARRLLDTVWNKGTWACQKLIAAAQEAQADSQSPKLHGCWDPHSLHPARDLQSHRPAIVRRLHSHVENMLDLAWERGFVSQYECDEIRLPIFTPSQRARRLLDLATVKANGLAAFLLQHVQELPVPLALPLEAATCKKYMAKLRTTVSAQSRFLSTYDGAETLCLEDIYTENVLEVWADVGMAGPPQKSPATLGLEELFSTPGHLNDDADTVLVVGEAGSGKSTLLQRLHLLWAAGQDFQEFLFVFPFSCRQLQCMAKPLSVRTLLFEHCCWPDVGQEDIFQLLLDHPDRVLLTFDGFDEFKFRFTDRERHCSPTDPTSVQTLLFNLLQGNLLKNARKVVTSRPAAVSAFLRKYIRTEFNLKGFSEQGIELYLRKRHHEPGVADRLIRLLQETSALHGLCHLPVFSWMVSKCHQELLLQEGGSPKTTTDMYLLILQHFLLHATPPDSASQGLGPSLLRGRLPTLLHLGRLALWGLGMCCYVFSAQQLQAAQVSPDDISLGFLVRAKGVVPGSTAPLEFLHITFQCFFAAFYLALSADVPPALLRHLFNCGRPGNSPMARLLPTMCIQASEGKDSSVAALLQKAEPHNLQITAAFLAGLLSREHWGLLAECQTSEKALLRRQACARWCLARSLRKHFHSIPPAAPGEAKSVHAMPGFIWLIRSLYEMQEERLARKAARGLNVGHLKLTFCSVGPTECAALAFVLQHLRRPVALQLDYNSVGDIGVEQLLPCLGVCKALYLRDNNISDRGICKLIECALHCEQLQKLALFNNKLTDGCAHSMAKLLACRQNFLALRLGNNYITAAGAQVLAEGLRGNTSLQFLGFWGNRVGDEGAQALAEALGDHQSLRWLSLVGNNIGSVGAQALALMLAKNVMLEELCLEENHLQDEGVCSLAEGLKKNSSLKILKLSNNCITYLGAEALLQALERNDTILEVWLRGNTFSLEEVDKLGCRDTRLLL

T2 sequence (P41145 whole entry): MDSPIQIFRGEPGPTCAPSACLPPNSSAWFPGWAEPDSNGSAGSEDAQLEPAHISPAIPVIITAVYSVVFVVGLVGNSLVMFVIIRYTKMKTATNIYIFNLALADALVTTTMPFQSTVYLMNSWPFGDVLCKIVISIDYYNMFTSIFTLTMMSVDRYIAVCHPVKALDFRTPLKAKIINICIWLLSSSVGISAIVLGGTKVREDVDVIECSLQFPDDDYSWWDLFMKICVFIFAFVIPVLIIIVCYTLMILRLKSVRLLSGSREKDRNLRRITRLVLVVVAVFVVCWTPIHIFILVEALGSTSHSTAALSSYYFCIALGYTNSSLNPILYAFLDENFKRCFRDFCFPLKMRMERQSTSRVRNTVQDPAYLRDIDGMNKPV
T1 sequence (P41143 whole entry): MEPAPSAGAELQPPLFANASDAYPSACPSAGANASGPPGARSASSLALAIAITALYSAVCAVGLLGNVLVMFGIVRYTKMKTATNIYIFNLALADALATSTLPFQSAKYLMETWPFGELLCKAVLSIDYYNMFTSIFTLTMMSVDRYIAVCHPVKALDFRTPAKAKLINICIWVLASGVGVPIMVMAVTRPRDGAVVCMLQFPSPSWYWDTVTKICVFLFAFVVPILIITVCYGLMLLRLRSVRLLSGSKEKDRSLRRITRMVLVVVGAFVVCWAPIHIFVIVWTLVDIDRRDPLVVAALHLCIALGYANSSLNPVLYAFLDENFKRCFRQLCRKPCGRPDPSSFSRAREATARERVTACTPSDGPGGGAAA
T3 sequence (P35372 whole entry): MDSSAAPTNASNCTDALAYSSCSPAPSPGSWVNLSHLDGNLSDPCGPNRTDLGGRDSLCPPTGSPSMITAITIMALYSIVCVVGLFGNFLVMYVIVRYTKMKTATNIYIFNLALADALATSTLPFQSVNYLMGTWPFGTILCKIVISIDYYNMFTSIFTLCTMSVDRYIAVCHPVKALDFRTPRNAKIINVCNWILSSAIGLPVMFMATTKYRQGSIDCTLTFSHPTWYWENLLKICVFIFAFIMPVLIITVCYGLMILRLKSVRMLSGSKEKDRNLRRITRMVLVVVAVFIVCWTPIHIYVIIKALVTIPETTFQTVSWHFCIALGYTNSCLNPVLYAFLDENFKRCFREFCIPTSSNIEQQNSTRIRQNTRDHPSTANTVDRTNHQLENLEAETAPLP
Sequence of CAAX prenyl protease 1 (P47154 whole entry): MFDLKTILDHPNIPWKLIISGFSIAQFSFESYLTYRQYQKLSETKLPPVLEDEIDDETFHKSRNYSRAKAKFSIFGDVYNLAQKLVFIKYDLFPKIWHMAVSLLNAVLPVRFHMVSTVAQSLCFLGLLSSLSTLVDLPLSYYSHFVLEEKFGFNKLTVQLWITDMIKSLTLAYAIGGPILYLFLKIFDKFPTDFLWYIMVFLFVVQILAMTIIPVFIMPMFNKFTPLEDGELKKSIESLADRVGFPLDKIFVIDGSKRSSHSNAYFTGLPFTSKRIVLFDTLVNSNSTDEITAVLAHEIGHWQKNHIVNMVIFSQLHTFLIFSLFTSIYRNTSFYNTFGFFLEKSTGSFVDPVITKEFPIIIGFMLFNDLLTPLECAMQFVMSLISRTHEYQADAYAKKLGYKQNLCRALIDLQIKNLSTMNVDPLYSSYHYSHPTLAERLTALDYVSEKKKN
Sequence of Melanocortin receptor 4 (P32245 whole entry): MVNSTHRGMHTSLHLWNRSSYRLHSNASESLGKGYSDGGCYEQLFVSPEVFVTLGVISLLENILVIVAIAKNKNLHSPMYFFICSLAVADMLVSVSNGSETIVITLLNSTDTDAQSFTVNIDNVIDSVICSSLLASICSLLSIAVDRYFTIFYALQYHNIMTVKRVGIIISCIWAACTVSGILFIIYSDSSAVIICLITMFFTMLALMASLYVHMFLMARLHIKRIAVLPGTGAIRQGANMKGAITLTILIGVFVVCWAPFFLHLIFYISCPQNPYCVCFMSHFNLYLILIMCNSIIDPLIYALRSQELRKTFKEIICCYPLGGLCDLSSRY
Sequence of Galanin receptor type 2 (O43603 whole entry): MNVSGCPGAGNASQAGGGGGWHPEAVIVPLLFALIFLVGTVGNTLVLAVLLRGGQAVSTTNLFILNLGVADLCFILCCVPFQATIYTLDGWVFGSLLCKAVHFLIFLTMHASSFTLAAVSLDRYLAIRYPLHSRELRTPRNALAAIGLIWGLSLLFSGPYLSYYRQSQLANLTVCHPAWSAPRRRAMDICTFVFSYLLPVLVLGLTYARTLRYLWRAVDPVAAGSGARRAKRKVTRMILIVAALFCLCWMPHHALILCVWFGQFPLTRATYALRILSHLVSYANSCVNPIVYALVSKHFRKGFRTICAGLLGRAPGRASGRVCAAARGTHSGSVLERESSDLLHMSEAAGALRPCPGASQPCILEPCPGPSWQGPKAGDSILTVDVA

## COC(=O)c1ccc(COC(=O)c2[nH]c(C)c(C(C)=O)c2C)o1
[1]
  AC50: 2.58 µM (active)
[2]
  IC50: 2.72 µM (active)
[3]
  AC50: 2.46 µM (active)
[4]
  IC50: 3.23 µM (active)
[5]
  IC50: > 42 µM (not active)

## CCCCN(Cc1cc2cc(OC)ccc2[nH]c1=O)C(=O)c1ccccn1
[6]
  EC50: > 32 µM (inactive)
[7]
  EC50: > 10 µM (inactive)
[8]
  IC50: > 32 µM (inactive)
[9]
  IC50: > 32 µM (inactive)
[10]
  EC50: 19.9 µM (inactive)
[11]
  EC50: > 32 µM (inactive)
[12]
  IC50: > 32 µM (inactive)

## CCC(C)(C)c1ccc(OCCCC[n+]2cccc(C)c2C)c(C(C)(C)CC)c1
[13]
  EC50: 2.48 µM (active)
[14]
  EC50: 5.62 µM (active)
[15]
  IC50: 20.2 µM (active)
[16]
  AC50: 31.2 µM (active)
[17]
  IC50: > 20 µM (inactive)
[18]
  EC50: > 3.3 µM (active)
[19]
  AC50: 9.82 µM (active)
[20]
  EC50: 5.09 µM (active)
[21]
  AC50: 0.632 µM (active)
[22]
  EC50: 4.56 µM (active)
[23]
  IC50: 2.48 µM (active)
[24]
  AC50: 5.38 µM (active)
[25]
  EC50: 3.96 µM (inconclusive)
[26]
  IC50: > 20 µM (inactive)
[27]
  EC50: 4.18 µM (inconclusive)
[28]
  IC50: 6.37 µM (active)
[29]
  IC50: 3.2 µM (active)
[30]
  EC50: 0.67 µM (active)
[31]
  IC50: 56.1 µM (inactive)
[32]
  EC50: > 160 µM (inactive)
[33]
  AC50: 8.03 µM (active)
[34]
  EC50: 8.15 µM (active)
